Reference: ChEMBL document CHEMBL3885881, “DrugMatrix”

Organism: Rattus norvegicus
Test: DrugMatrix - Regimen: Daily Repeat
Type: toxicity, organism-based, Sprague-Dawley
Set-up: regimen Daily Repeat, gender Male, age 6-8 weeks
Details: in vivo, po, route oral GAVAGE, vehicle .5 % CMC; for ABSOLUTE BASOPHIL / ABSOLUTE EOSINOPHIL / ABSOLUTE LYMPHOCYTE / ABSOLUTE MONOCYTE / ABSOLUTE SEGMENTED NEUTROPHIL / BASOPHIL / EOSINOPHIL / ERYTHROCYTE COUNT / HEMATOCRIT / HEMOGLOBIN / LEUKOCYTE COUNT / LYMPHOCYTE / MEAN CORPUSCULAR HEMOGLOBIN / MEAN CORPUSCULAR HEMOGLOBIN CONCENTRATION / MEAN CORPUSCULAR VOLUME / MONOCYTE / NEUTROPHIL / NUCLEATED RED BLOOD CELLS / PLATELET COUNT: tissue Blood; for ALANINE AMINOTRANSFERASE / ALBUMIN / ALKALINE PHOSPHATASE / ASPARTATE AMINOTRANSFERASE / BLOOD UREA NITROGEN / CARBON DIOXIDE / CHLORIDE / CHOLESTEROL / CREATINE PHOSPHOKINASE / CREATININE / GLUCOSE / LACTATE DEHYDROGENASE / LIPASE / PHOSPHORUS / POTASSIUM / SODIUM / TOTAL BILIRUBIN / TOTAL PROTEIN / URIC ACID: tissue Plasma
[1] = 385.5 mg/kg, 120 h, dose level Low, time 5 day
[2] = 3855 mg/kg, 72 h, dose level High, time 3 day
[3] = 3855 mg/kg, 120 h, dose level High, time 5 day

Cn1c(=O)c2c(ncn2CC(O)CO)n(C)c1=O (centres undefined) [DYPHYLLINE]
ABSOLUTE BASOPHIL [1]: 0 CELLS/uL | ABSOLUTE EOSINOPHIL [1]: 0 CELLS/uL | ABSOLUTE LYMPHOCYTE [1]: 14849.33 CELLS/uL | ABSOLUTE MONOCYTE [1]: 268.33 CELLS/uL | ABSOLUTE SEGMENTED NEUTROPHIL [1]: 1249 CELLS/uL | BASOPHIL [1]: 0% | EOSINOPHIL [1]: 0% | ERYTHROCYTE COUNT [1]: 5.2 x10E6/uL | HEMATOCRIT [1]: 34.47% | HEMOGLOBIN [1]: 13.7 G/DL | LEUKOCYTE COUNT [1]: 16.37 x10E3/uL | LYMPHOCYTE [1]: 90.67% | MEAN CORPUSCULAR HEMOGLOBIN [1]: 26.37 pg | MEAN CORPUSCULAR HEMOGLOBIN CONCENTRATION [1]: 39.77 G/DL | MEAN CORPUSCULAR VOLUME [1]: 66.3 fL | MONOCYTE [1]: 1.67% | NEUTROPHIL [1]: 7.67% | NUCLEATED RED BLOOD CELLS [1]: 0.33 /100WBC | PLATELET COUNT [1]: 1326 x10E3/uL | ALANINE AMINOTRANSFERASE [1]: 46.67 u/L | ALBUMIN [1]: 4.3 G/DL | ALKALINE PHOSPHATASE [1]: 287 u/L | ASPARTATE AMINOTRANSFERASE [1]: 70.67 u/L | BLOOD UREA NITROGEN [1]: 18.67 mg/dL | CARBON DIOXIDE [1]: 25.33 mmol/L | CHLORIDE [1]: 102.67 MEQ/L | CHOLESTEROL [1]: 75.33 mg/dL | CREATINE PHOSPHOKINASE [1]: 172.67 u/L | CREATININE [1]: 0.18 mg/dL | GLUCOSE [1]: 155 mg/dL | LACTATE DEHYDROGENASE [1]: 103.33 u/L | LIPASE [1]: 10 u/L | PHOSPHORUS [1]: 13.33 mg/dL | POTASSIUM [1]: 6.61 MEQ/L | SODIUM [1]: 146.27 MEQ/L | TOTAL BILIRUBIN [1]: 0.2 mg/dL | TOTAL PROTEIN [1]: 5.93 G/DL | URIC ACID [1]: 1.33 mg/dL | ABSOLUTE BASOPHIL [2]: 0 CELLS/uL | ABSOLUTE EOSINOPHIL [2]: 0 CELLS/uL | ABSOLUTE LYMPHOCYTE [2]: 16214.67 CELLS/uL | ABSOLUTE MONOCYTE [2]: 399.33 CELLS/uL | ABSOLUTE SEGMENTED NEUTROPHIL [2]: 2086 CELLS/uL | BASOPHIL [2]: 0% | EOSINOPHIL [2]: 0% | ERYTHROCYTE COUNT [2]: 5.33 x10E6/uL | HEMATOCRIT [2]: 33.37% | HEMOGLOBIN [2]: 13.57 G/DL | LEUKOCYTE COUNT [2]: 18.7 x10E3/uL | LYMPHOCYTE [2]: 87% | MEAN CORPUSCULAR HEMOGLOBIN [2]: 25.5 pg | MEAN CORPUSCULAR HEMOGLOBIN CONCENTRATION [2]: 40.67 G/DL | MEAN CORPUSCULAR VOLUME [2]: 62.63 fL | MONOCYTE [2]: 2% | NEUTROPHIL [2]: 11% | NUCLEATED RED BLOOD CELLS [2]: 0 /100WBC | PLATELET COUNT [2]: 1235.67 x10E3/uL | ALANINE AMINOTRANSFERASE [2]: 63.67 u/L | ALBUMIN [2]: 4.37 G/DL | ALKALINE PHOSPHATASE [2]: 376 u/L | ASPARTATE AMINOTRANSFERASE [2]: 102 u/L | BLOOD UREA NITROGEN [2]: 14 mg/dL | CARBON DIOXIDE [2]: 25.67 mmol/L | CHLORIDE [2]: 103.33 MEQ/L | CHOLESTEROL [2]: 72 mg/dL | CREATINE PHOSPHOKINASE [2]: 224.33 u/L | CREATININE [2]: 0.18 mg/dL | GLUCOSE [2]: 169.33 mg/dL | LACTATE DEHYDROGENASE [2]: 157.67 u/L | LIPASE [2]: 10 u/L | PHOSPHORUS [2]: 11.3 mg/dL | POTASSIUM [2]: 6.13 MEQ/L | SODIUM [2]: 145.4 MEQ/L | TOTAL BILIRUBIN [2]: 0.17 mg/dL | TOTAL PROTEIN [2]: 5.77 G/DL | URIC ACID [2]: 1.27 mg/dL | ABSOLUTE BASOPHIL [3]: 0 CELLS/uL | ABSOLUTE EOSINOPHIL [3]: 169.33 CELLS/uL | ABSOLUTE LYMPHOCYTE [3]: 15268 CELLS/uL | ABSOLUTE MONOCYTE [3]: 115.33 CELLS/uL | ABSOLUTE SEGMENTED NEUTROPHIL [3]: 1780.67 CELLS/uL | BASOPHIL [3]: 0% | EOSINOPHIL [3]: 1% | ERYTHROCYTE COUNT [3]: 5.34 x10E6/uL | HEMATOCRIT [3]: 34.57% | HEMOGLOBIN [3]: 13.7 G/DL | LEUKOCYTE COUNT [3]: 17.33 x10E3/uL | LYMPHOCYTE [3]: 88% | MEAN CORPUSCULAR HEMOGLOBIN [3]: 25.67 pg | MEAN CORPUSCULAR HEMOGLOBIN CONCENTRATION [3]: 39.63 G/DL | MEAN CORPUSCULAR VOLUME [3]: 64.77 fL | MONOCYTE [3]: 0.67% | NEUTROPHIL [3]: 10.33% | NUCLEATED RED BLOOD CELLS [3]: 0.33 /100WBC | PLATELET COUNT [3]: 1356 x10E3/uL | ALANINE AMINOTRANSFERASE [3]: 67.33 u/L | ALBUMIN [3]: 4.23 G/DL | ALKALINE PHOSPHATASE [3]: 246 u/L | ASPARTATE AMINOTRANSFERASE [3]: 85.67 u/L | BLOOD UREA NITROGEN [3]: 17 mg/dL | CARBON DIOXIDE [3]: 26.33 mmol/L | CHLORIDE [3]: 102.33 MEQ/L | CHOLESTEROL [3]: 58.67 mg/dL | CREATINE PHOSPHOKINASE [3]: 184.33 u/L | CREATININE [3]: 0.16 mg/dL | GLUCOSE [3]: 150.67 mg/dL | LACTATE DEHYDROGENASE [3]: 98.67 u/L | LIPASE [3]: 10 u/L | PHOSPHORUS [3]: 11.47 mg/dL | POTASSIUM [3]: 6.42 MEQ/L | SODIUM [3]: 144.77 MEQ/L | TOTAL BILIRUBIN [3]: 0.2 mg/dL | TOTAL PROTEIN [3]: 5.77 G/DL | URIC ACID [3]: 1 mg/dL
